Each block holds one compound with its values, some of them ahead of it. Calls of active or inactive are those of the source. The rule behind the calls is not given here.
Assays:
[1] = molecular target: Histamine H2 receptor (Homo sapiens) (UniProt P25021); conditions: Compound concentration 10.0 uM
[2] = molecular target: Alpha-1B adrenergic receptor (Homo sapiens) (UniProt P35368); conditions: Compound concentration 10.0 uM
[3] = molecular target: Muscarinic acetylcholine receptor M1 (Homo sapiens) (UniProt P11229); conditions: Compound concentration 10.0 uM
[4] = molecular target: Beta-3 adrenergic receptor (Homo sapiens) (UniProt P13945); conditions: Compound concentration 10.0 uM
[5] = molecular target: T1, GABA-A receptor; anion channel (Rattus norvegicus) (UniProt O09028+P15431+P18506+P18508+P19969+P20236+P23574+P23576+P28471+P28473+P30191+P62813+P63079+P63138+Q91ZM7+Q9ES14); conditions: Compound concentration 10.0 uM
[6] = molecular target: 5-hydroxytryptamine receptor 7 (Homo sapiens) (UniProt P34969); conditions: Compound concentration 10.0 uM
[7] = molecular target: Beta-2 adrenergic receptor (Homo sapiens) (UniProt P07550); conditions: Compound concentration 10.0 uM
[8] = molecular target: Delta-type opioid receptor (Homo sapiens) (UniProt P41143); conditions: Compound concentration 10.0 uM
[9] = tested on: EMRK1184; experiment: Proliferation assay with EMRK1184 lymphoma cells; assay type: functional, cell-based; conditions: Mus musculus
[10] = molecular target: Alpha-1A adrenergic receptor (Homo sapiens) (UniProt P35348); conditions: Compound concentration 10.0 uM
[11] = molecular target: 5-hydroxytryptamine receptor 2C (Homo sapiens) (UniProt P28335); conditions: Compound concentration 10.0 uM
[12] = molecular target: D(2) dopamine receptor (Homo sapiens) (UniProt P14416); conditions: Compound concentration 10.0 uM
[13] = molecular target: 5-hydroxytryptamine receptor 2B (Homo sapiens) (UniProt P41595); conditions: Compound concentration 10.0 uM
[14] = molecular target: 5-hydroxytryptamine receptor 1D (Homo sapiens) (UniProt P28221); conditions: Compound concentration 10.0 uM
[15] = molecular target: 5-hydroxytryptamine receptor 2A (Homo sapiens) (UniProt P28223); conditions: Compound concentration 10.0 uM
[16] = molecular target: Sigma non-opioid intracellular receptor 1 (Homo sapiens) (UniProt Q99720); conditions: Compound concentration 10.0 uM
[17] = molecular target: Histamine H4 receptor (Homo sapiens) (UniProt Q9H3N8); conditions: Compound concentration 10.0 uM
[18] = species: Rattus norvegicus; conditions: Compound concentration 10.0 uM
[19] = molecular target: D(1B) dopamine receptor (Homo sapiens) (UniProt P21918); conditions: Compound concentration 10.0 uM
[20] = molecular target: D(4) dopamine receptor (Homo sapiens) (UniProt P21917); conditions: Compound concentration 10.0 uM
[21] = molecular target: D(1A) dopamine receptor (Homo sapiens) (UniProt P21728); conditions: Compound concentration 10.0 uM
[22] = molecular target: Histamine H1 receptor (Homo sapiens) (UniProt P35367); conditions: Compound concentration 10.0 uM
[23] = molecular target: Alpha-2B adrenergic receptor (Homo sapiens) (UniProt P18089); conditions: Compound concentration 10.0 uM
[24] = molecular target: Kappa-type opioid receptor (Homo sapiens) (UniProt P41145); conditions: Compound concentration 10.0 uM
[25] = molecular target: 5-hydroxytryptamine receptor 1E (Homo sapiens) (UniProt P28566); conditions: Compound concentration 10.0 uM
[26] = molecular target: 5-hydroxytryptamine receptor 1B (Homo sapiens) (UniProt P28222); conditions: Compound concentration 10.0 uM
[27] = molecular target: D(3) dopamine receptor (Homo sapiens) (UniProt P35462); conditions: Compound concentration 10.0 uM
[28] = tested on: MEF; experiment: Cell growth of Fucci MEFs; assay type: functional, Mus musculus; conditions: Assay publication PMID: 30069049; Compound concentration 1 uM
[29] = molecular target: Muscarinic acetylcholine receptor M4 (Homo sapiens) (UniProt P08173); conditions: Compound concentration 10.0 uM
[30] = molecular target: Mu-type opioid receptor (Homo sapiens) (UniProt P35372); conditions: Compound concentration 10.0 uM
[31] = molecular target: Muscarinic acetylcholine receptor M5 (Homo sapiens) (UniProt P08912); conditions: Compound concentration 10.0 uM
[32] = molecular target: Beta-1 adrenergic receptor (Homo sapiens) (UniProt P08588); conditions: Compound concentration 10.0 uM
[33] = molecular target: Alpha-1D adrenergic receptor (Homo sapiens) (UniProt P25100); conditions: Compound concentration 10.0 uM
[34] = molecular target: T1, GABA-A receptor; anion channel (Rattus norvegicus); conditions: Compound concentration 10.0 uM; remark: listed apart in the source
[35] = molecular target: 5-hydroxytryptamine receptor 3A (Homo sapiens) (UniProt P46098); conditions: Compound concentration 10.0 uM
[36] = molecular target: Alpha-2C adrenergic receptor (Homo sapiens) (UniProt P18825); conditions: Compound concentration 10.0 uM
[37] = molecular target: Sigma intracellular receptor 2 (Homo sapiens) (UniProt Q5BJF2); conditions: Compound concentration 10.0 uM
[38] = molecular target: Muscarinic acetylcholine receptor M2 (Homo sapiens) (UniProt P08172); conditions: Compound concentration 10.0 uM
[39] = molecular target: 5-hydroxytryptamine receptor 1A (Homo sapiens) (UniProt P08908); conditions: Compound concentration 10.0 uM
[40] = molecular target: 5-hydroxytryptamine receptor 5A (Homo sapiens) (UniProt P47898); conditions: Compound concentration 10.0 uM
[41] = molecular target: Methionine aminopeptidase 2 (Homo sapiens, UniProt P50579); experiment: Biochemical activity-MetAP2 using Co
[42] = molecular target: T2, Sodium-dependent dopamine transporter (Homo sapiens, UniProt Q01959); conditions: Compound concentration 10.0 uM
[43] = molecular target: Histamine H3 receptor (Homo sapiens) (UniProt Q9Y5N1); conditions: Compound concentration 10.0 uM
[44] = molecular target: Alpha-2A adrenergic receptor (Homo sapiens, UniProt P08913); experiment: GPCRScan assay: inhibition of Alpha2A; parameters: radioligand conc. used [nm] 1.0 – 3.0, parental cells stable MDCK
[45] = molecular target: Alpha-2A adrenergic receptor (Homo sapiens) (UniProt P08913); conditions: Compound concentration 10.0 uM
[46] = molecular target: Sodium-dependent noradrenaline transporter (Homo sapiens) (UniProt P23975); conditions: Compound concentration 10.0 uM
[47] = molecular target: Sodium-dependent serotonin transporter (Homo sapiens) (UniProt P31645); conditions: Compound concentration 10.0 uM
[48] = molecular target: 5-hydroxytryptamine receptor 6 (Homo sapiens) (UniProt P50406); conditions: Compound concentration 10.0 uM
[49] = molecular target: T2, Sodium-dependent dopamine transporter; experiment: GPCRScan assay: inhibition of DAT; parameters: radioligand conc. used [nm] 3.6 – 16.0, parental cells stable HEK
[50] = molecular target: Muscarinic acetylcholine receptor M3 (Homo sapiens) (UniProt P20309); conditions: Compound concentration 10.0 uM

T2 sequence (Q01959 whole entry): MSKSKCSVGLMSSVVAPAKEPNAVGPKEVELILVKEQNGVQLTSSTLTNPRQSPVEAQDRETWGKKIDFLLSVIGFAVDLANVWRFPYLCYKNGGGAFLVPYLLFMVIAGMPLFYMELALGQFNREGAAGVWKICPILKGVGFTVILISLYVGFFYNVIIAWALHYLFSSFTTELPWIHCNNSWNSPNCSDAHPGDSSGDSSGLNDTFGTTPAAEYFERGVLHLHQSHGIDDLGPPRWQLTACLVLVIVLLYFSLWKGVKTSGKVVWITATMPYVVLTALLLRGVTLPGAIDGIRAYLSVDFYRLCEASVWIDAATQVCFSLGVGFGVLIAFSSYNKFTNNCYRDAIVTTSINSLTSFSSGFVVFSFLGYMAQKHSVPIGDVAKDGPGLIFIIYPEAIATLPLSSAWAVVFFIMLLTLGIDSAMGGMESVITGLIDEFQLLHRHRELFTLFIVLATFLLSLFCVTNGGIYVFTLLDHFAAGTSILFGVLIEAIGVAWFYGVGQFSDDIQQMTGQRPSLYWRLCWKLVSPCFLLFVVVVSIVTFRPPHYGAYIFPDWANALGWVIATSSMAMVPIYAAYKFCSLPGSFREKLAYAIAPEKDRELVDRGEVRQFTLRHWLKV
Sequence of D(4) dopamine receptor (Homo sapiens) (P21917 whole entry): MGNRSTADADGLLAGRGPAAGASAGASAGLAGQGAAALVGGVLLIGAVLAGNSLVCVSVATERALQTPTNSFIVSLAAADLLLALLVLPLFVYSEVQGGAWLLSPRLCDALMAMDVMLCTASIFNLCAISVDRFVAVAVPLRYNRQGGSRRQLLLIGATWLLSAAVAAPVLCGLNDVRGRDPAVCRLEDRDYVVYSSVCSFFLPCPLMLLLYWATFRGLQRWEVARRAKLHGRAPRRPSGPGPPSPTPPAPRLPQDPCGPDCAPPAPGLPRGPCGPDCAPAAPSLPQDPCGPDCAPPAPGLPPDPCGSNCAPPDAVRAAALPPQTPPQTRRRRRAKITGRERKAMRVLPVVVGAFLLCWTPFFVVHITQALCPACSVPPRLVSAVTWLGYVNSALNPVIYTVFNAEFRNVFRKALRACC
Sequence of Histamine H2 receptor (Homo sapiens) (P25021 whole entry): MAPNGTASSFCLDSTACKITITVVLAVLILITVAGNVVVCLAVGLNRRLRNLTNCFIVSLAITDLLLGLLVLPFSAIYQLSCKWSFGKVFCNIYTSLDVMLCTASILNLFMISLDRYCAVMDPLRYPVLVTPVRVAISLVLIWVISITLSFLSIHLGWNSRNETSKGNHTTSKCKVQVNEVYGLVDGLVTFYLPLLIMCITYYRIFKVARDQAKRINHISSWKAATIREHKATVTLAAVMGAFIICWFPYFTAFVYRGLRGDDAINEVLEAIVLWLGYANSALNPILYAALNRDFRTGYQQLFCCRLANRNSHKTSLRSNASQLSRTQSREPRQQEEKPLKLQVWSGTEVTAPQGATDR
Sequence of 5-hydroxytryptamine receptor 2A (Homo sapiens) (P28223 whole entry): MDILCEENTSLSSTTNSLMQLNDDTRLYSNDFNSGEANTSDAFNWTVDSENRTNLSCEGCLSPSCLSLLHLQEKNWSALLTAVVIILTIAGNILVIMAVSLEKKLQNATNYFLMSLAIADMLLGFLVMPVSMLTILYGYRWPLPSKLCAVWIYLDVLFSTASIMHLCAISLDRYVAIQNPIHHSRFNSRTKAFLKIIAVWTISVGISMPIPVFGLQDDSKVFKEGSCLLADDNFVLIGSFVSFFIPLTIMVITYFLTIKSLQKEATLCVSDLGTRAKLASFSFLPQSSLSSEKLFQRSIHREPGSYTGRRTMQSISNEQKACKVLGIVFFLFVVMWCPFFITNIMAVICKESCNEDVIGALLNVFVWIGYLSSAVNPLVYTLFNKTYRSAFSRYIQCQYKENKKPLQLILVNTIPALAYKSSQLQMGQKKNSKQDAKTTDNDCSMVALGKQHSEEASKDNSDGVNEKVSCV
Sequence of 5-hydroxytryptamine receptor 1E (Homo sapiens) (P28566 whole entry): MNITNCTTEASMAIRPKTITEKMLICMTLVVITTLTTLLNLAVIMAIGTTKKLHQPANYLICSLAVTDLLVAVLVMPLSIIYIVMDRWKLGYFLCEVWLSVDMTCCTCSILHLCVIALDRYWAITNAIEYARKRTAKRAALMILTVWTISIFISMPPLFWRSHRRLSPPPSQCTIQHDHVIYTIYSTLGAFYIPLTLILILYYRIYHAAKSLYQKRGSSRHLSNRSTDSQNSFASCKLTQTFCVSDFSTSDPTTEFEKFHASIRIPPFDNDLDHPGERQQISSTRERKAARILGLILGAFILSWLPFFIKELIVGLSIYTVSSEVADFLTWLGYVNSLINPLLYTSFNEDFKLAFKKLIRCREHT
Sequence of 5-hydroxytryptamine receptor 2C (Homo sapiens) (P28335 whole entry): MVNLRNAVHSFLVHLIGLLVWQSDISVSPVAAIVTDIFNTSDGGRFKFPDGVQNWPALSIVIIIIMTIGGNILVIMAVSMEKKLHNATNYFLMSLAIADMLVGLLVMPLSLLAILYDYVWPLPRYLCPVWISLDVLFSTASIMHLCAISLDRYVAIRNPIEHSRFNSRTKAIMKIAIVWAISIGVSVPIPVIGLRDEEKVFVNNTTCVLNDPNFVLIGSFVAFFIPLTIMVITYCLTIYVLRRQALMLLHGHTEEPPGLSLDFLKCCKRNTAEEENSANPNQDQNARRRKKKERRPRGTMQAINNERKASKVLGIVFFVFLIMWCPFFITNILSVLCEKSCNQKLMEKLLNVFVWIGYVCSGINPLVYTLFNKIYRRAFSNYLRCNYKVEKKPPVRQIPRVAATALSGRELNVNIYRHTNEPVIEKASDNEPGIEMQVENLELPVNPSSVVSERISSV
Sequence of 5-hydroxytryptamine receptor 1A (Homo sapiens) (P08908 whole entry): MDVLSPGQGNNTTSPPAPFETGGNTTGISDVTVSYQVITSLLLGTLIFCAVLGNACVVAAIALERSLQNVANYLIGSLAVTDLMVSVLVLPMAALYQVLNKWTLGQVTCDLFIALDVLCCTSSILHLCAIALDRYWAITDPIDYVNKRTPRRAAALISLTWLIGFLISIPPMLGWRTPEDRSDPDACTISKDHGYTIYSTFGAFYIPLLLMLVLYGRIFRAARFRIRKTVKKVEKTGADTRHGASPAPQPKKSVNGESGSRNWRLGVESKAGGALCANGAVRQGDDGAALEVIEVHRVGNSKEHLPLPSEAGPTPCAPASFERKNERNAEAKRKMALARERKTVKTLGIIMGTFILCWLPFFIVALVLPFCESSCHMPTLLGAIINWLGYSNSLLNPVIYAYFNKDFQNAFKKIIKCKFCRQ
Sequence of Beta-2 adrenergic receptor (Homo sapiens) (P07550 whole entry, looked up): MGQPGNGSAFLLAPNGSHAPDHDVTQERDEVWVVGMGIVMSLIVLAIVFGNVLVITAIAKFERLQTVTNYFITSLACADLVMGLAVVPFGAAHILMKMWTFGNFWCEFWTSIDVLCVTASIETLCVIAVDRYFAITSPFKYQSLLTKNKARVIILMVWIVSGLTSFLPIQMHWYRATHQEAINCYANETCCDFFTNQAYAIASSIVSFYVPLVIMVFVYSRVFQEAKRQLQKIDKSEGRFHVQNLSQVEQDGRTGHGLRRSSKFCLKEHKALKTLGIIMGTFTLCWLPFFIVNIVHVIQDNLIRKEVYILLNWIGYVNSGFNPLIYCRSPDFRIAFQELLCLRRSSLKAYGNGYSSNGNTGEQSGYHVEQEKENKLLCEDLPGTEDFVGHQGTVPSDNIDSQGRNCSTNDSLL
Sequence of 5-hydroxytryptamine receptor 1B (Homo sapiens) (P28222 whole entry): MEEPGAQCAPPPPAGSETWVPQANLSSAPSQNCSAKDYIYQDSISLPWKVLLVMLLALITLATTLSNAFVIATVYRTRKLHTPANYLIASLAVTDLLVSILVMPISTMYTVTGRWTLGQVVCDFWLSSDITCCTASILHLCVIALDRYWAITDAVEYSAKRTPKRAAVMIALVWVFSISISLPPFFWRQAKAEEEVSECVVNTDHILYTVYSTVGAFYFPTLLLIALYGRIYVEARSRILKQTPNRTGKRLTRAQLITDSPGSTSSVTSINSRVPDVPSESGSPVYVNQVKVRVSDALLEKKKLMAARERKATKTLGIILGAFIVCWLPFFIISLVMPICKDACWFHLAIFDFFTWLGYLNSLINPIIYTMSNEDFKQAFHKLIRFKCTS
Sequence of Alpha-1D adrenergic receptor (Homo sapiens) (P25100 whole entry): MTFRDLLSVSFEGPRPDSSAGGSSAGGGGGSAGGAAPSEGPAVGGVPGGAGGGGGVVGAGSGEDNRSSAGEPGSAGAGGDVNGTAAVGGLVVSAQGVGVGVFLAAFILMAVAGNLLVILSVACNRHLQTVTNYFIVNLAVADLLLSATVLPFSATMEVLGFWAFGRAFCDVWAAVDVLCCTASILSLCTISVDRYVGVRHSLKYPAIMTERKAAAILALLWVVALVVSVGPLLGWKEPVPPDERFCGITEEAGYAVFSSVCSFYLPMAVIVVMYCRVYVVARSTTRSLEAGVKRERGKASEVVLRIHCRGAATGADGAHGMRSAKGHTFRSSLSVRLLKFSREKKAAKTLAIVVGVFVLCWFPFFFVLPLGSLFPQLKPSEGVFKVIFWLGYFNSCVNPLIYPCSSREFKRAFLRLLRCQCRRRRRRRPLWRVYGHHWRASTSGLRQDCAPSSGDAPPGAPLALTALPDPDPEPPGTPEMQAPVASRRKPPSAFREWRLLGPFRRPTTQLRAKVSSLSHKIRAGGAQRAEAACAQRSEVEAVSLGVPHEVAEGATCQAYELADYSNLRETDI
Sequence of Alpha-2A adrenergic receptor (P08913 whole entry): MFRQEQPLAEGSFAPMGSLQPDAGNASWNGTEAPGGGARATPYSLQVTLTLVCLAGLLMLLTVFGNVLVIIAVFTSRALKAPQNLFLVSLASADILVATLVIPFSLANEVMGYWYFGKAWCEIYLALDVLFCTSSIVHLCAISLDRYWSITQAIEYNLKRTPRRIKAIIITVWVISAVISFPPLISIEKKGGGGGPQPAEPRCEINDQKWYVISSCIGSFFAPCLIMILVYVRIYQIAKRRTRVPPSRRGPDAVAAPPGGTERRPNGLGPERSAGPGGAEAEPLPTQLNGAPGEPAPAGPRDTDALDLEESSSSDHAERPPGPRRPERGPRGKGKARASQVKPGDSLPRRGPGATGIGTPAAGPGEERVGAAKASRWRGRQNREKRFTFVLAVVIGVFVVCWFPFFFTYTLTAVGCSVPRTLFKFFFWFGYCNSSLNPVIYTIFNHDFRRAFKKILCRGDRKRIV

- inhibition [1]: 5.32%
- inhibition [2]: 7.18%
- inhibition [3]: 0.14%
- inhibition [4]: 16.3%
- inhibition [5]: 11.7%
- inhibition [6]: -3.75%
- inhibition [7]: 13.2%
- inhibition [8]: 20.6%
- inhibition [10]: 9.59%
- inhibition [11]: 6.46%
- inhibition [12]: 79.6%
- inhibition [13]: 2.94%
- inhibition [14]: -0.66%
- inhibition [15]: -7.37%
- inhibition [16]: 35.7%
- inhibition [17]: -2.44%
- inhibition [18]: 47%
- inhibition [19]: 4.57%
- inhibition [20]: 23.8%
- inhibition [21]: -3.67%
- inhibition [22]: -8.33%
- inhibition [23]: -3.78%
- inhibition [24]: 5.23%
- inhibition [25]: 13.8%
- inhibition [26]: 13.6%
- inhibition [27]: 4.97%
- inhibition [29]: 20.4%
- inhibition [30]: 3.45%
- inhibition [31]: -8.87%
- inhibition [32]: -0.13%
- inhibition [33]: 3.2%
- inhibition [34]: 75.7%
- inhibition [35]: 32.9%
- inhibition [36]: 10.2%
- inhibition [37]: 19.9%
- inhibition [38]: 15.9%
- inhibition [39]: 16%
- inhibition [40]: -9.77%
SMILES: O=C(NNS(=O)(=O)c1ccccc1F)c1cc(F)cc(-c2ccccn2)c1 [WM-1119]
- IC50 [9]: 0.25 µM (active)
- Cell cycle effect [28]: 0

- inhibition [1]: -5.93%
- inhibition [2]: -3.44%
- IC50 [41]: > 50 µM (not active)
- inhibition [3]: 43.3%
- inhibition [5]: 4.55%
- inhibition [6]: -1.87%
- inhibition [7]: 10.4%
- inhibition [8]: 7.99%
- inhibition [10]: 18.6%
- inhibition [11]: 7.81%
- inhibition [12]: 14.7%
- inhibition [13]: 40.1%
- inhibition [15]: 11.8%
- inhibition [16]: 19.1%
- inhibition [18]: -3.6%
- inhibition [19]: 5.79%
- inhibition [42]: 80.2%
- inhibition [20]: 9.83%
- inhibition [21]: 8.58%
- inhibition [22]: -2.04%
- inhibition [23]: 3.07%
- inhibition [43]: 15.5%
- inhibition [24]: -5.1%
- Ki [44]: > 10 µM
- pKi [44]: < 5
- inhibition [25]: 13.1%
- inhibition [26]: 11%
- inhibition [27]: -8.61%
- inhibition [30]: 26.1%
- inhibition [32]: 11.2%
- inhibition [45]: 68.5%
- inhibition [33]: 17.4%
- inhibition [46]: -2.4%
- inhibition [34]: 34.6%
- inhibition [35]: 4.55%
- inhibition [47]: 6.15%
- inhibition [36]: -5.42%
- inhibition [48]: 2.65%
- Ki [49]: > 10 µM
- pKi [49]: < 5
- inhibition [37]: 40.1%
- inhibition [38]: -5.57%
- inhibition [39]: 23.1%
- inhibition [50]: 13%
- inhibition [40]: -0.06%
SMILES: O=C(NNS(=O)(=O)c1ccccc1)c1cc(-c2ccnnc2)ccc1F [WM-2474]
- Cell cycle effect [28]: 0

— ChEMBL document CHEMBL4507321 (2021)
